The target of test [1] is T1, P2Y purinoceptor 14 (Homo sapiens, UniProt Q15391).
T1 sequence (Q15391 whole entry): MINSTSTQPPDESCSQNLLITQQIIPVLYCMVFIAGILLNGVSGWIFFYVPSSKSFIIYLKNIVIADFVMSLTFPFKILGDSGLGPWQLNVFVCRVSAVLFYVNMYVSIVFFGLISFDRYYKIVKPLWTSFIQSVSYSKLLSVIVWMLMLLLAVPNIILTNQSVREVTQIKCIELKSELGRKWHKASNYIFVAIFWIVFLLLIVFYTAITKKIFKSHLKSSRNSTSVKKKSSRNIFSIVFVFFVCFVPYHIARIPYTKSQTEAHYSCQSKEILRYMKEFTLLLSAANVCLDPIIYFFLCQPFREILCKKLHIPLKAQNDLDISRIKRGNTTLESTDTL
Description: Displacement of MRS4174 from human P2Y14R expressed in CHO cells preincubated for 30 mins followed by MRS4174 addition measured after 30 mins by flow cytometric method

Test [2] addresses Sodium-dependent noradrenaline transporter (Homo sapiens, UniProt P23975). The test is described as follows: Displacement of [3H]-Nisoxetine from human NET expressed in HEK293 cell membranes after 90 mins by scintillation counting method.
The target in test [3] is Delta-type opioid receptor (Homo sapiens, UniProt P41143). The test is described as follows: Displacement of [3H]-DADLE from human delta opioid receptor expressed in HEK293 cells after 90 mins by scintillation counting method. Type of test: cell-based.
The target of test [4] is Beta-3 adrenergic receptor (Homo sapiens, UniProt P13945). The test is described as follows: Displacement of [3H]-CGP12177 from human adrenergic beta-3 receptor expressed in HEK Flp-In cell membranes after 90 mins by scintillation counting method. On the technique in general: Displacement assays read how much labelled ligand stays bound in the presence of the test substance.
Chain of Beta-3 adrenergic receptor (P13945 whole entry): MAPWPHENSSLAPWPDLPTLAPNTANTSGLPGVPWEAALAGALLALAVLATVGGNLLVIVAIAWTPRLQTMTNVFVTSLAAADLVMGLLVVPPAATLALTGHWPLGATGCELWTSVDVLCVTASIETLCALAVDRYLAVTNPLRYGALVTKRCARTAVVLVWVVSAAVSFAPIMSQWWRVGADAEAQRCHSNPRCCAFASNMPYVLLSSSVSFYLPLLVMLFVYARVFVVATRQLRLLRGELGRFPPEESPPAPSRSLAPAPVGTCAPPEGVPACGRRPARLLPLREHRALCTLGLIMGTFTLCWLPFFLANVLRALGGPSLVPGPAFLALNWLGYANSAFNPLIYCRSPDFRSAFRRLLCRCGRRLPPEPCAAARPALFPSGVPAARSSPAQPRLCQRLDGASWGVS

Test [5] concerns the target Alpha-2A adrenergic receptor (Homo sapiens, UniProt P08913). The test is described as follows: Displacement of [3H]Rauwolscine from human adrenergic alpha2A receptor expressed in MDCK cell membranes after 90 mins by scintillation counting method.
In test [6] the target is 5-hydroxytryptamine receptor 6 (Homo sapiens, UniProt P50406). In words: Displacement of [3H]-LSD from human 5-HT6 receptor expressed in HEK293 cell membranes after 90 mins by scintillation counting method.
Test [7] concerns the target Translocator protein (Rattus norvegicus, UniProt P16257). The test is described as follows: Displacement of [3H]-PK11195 from rat brain TSPO after 90 mins by scintillation counting method.
The target in test [8] is Kappa-type opioid receptor (Homo sapiens, UniProt P41145). In words: Displacement of [3H]-U69593 from human KOR expressed in HEK293 cell membranes after 90 mins by scintillation counting method.
Test [9] addresses Sodium-dependent serotonin transporter (Homo sapiens, UniProt P31645). In words: Displacement of [3H]-Citalopram from human SERT expressed in HEK293 cell membranes after 90 mins by scintillation counting method.
Test [10] addresses Histamine H2 receptor (Homo sapiens, UniProt P25021). The test is described as follows: Displacement of [125I]-Iodoaminopotentidine from human histamine H2 receptor expressed in HEK293T cell membranes after 90 mins by scintillation counting method.
The target in test [11] is 5-hydroxytryptamine receptor 2A (Homo sapiens, UniProt P28223). In words: Displacement of [3H]-Ketanserin from human 5-HT2A receptor expressed in HEK293T cell membranes after 90 mins by scintillation counting method.
In test [12] the target is 5-hydroxytryptamine receptor 1A (Homo sapiens, UniProt P08908). In words: Displacement of [3H]-Way100635 from human 5-HT1A receptor expressed in CHO cell membranes after 90 mins by scintillation counting method.
The target in test [13] is Alpha-1B adrenergic receptor (Homo sapiens, UniProt P35368). In words: Displacement of [3H]-Prazosin from human adrenergic alpha1B receptor after 90 mins by scintillation counting method.
Chain of Alpha-1B adrenergic receptor (P35368 whole entry): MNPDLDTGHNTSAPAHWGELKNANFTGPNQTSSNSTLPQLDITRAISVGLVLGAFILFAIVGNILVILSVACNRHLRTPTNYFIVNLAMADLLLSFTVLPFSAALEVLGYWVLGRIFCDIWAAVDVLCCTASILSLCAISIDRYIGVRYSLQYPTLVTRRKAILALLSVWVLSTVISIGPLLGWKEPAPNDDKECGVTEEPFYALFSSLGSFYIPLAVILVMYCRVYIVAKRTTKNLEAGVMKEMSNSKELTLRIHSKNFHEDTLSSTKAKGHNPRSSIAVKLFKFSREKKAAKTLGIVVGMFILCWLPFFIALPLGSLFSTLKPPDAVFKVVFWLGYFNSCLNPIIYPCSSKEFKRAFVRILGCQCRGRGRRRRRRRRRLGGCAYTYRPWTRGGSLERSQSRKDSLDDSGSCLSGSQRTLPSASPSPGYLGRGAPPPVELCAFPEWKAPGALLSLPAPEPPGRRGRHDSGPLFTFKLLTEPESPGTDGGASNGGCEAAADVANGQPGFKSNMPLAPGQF
The target in test [14] is Alpha-1D adrenergic receptor (Homo sapiens, UniProt P25100). The test is described as follows: Displacement of [3H]-Prazosin from human adrenergic alpha1D receptor after 90 mins by scintillation counting method.
Test [15] has as its target Alpha-1A adrenergic receptor (Homo sapiens, UniProt P35348). The test is described as follows: Displacement of [3H]-Prazosin from human adrenergic alpha1A receptor after 90 mins by scintillation counting method.
The target in test [16] is Sodium-dependent dopamine transporter (Homo sapiens, UniProt Q01959). In words: Displacement of [3H]-WIN35428 from human DAT after 90 mins by scintillation counting method.
Test [17] has as its target Sigma intracellular receptor 2 (Homo sapiens, UniProt Q5BJF2). The test is described as follows: Displacement of [3H]-DTG from human sigma2 receptor expressed in HEK293T cell membranes after 90 mins by scintillation counting method.
The target of test [18] is D(3) dopamine receptor (Homo sapiens, UniProt P35462). In words: Displacement of [3H]N-methylspiperone from human dopamine D3 receptor expressed in HEK293T cell membranes after 90 mins by scintillation counting method.
Chain of D(3) dopamine receptor (P35462 whole entry): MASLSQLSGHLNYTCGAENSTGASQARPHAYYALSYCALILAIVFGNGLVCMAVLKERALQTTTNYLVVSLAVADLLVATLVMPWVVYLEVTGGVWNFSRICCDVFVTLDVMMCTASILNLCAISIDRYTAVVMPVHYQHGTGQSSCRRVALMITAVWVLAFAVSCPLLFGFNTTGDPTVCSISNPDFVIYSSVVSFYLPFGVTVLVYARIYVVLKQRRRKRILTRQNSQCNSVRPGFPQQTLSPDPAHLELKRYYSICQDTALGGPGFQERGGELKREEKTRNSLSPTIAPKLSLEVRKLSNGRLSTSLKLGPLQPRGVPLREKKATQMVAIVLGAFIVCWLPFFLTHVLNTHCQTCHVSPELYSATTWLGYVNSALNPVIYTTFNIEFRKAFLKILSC
Test [19] concerns the target D(1A) dopamine receptor (Homo sapiens, UniProt P21728). In words: Displacement of [3H]SCH23390 from human dopamine D1 receptor expressed in HEK293T cell membranes after 90 mins by scintillation counting method.
Test [20] deals with D(2) dopamine receptor (Homo sapiens, UniProt P14416). The test is described as follows: Displacement of [3H]N-methylspiperone from human dopamine D2 receptor expressed in HEK293T cell membranes after 90 mins by scintillation counting method.
In test [21] the target is D(1B) dopamine receptor (Homo sapiens, UniProt P21918). In words: Displacement of [3H]SCH23390 from human dopamine D5 receptor expressed in HEK293T cell membranes after 90 mins by scintillation counting method.
Chain of D(1B) dopamine receptor (P21918 whole entry): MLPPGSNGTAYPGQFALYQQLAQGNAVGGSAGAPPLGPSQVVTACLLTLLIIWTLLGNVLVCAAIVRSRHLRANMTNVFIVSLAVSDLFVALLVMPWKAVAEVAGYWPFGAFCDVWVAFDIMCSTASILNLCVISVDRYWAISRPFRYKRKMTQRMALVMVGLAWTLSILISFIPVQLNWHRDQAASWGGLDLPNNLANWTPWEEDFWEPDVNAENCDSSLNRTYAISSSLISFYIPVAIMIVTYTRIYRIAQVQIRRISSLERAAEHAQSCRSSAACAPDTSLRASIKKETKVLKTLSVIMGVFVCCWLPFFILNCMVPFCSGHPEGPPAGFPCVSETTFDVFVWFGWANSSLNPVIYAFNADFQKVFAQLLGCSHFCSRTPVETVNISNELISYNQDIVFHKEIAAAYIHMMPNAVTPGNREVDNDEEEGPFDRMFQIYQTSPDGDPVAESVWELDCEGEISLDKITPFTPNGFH
Test [22] has as its target Alpha-2B adrenergic receptor (Homo sapiens, UniProt P18089). In words: Displacement of [3H]Rauwolscine from human adrenergic alpha2B receptor expressed in HEK293T cell membranes after 90 mins by scintillation counting method.

Chain of Sodium-dependent noradrenaline transporter (P23975 whole entry): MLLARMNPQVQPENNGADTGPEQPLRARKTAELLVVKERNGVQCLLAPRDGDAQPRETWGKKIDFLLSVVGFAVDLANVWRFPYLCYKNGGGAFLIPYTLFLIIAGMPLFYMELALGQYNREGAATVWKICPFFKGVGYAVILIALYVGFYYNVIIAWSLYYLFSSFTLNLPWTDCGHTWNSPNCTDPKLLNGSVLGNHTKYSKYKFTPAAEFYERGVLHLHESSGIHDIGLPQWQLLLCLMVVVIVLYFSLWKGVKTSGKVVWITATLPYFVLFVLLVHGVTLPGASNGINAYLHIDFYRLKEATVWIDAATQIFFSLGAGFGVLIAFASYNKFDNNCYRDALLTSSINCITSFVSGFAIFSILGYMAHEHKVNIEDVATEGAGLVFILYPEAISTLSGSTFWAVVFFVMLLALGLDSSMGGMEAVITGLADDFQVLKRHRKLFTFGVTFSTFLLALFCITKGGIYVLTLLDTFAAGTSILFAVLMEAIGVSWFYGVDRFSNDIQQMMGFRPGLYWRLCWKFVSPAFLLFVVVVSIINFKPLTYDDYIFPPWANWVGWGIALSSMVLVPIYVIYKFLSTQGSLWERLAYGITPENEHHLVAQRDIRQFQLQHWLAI
Chain of Alpha-2A adrenergic receptor (P08913 whole entry): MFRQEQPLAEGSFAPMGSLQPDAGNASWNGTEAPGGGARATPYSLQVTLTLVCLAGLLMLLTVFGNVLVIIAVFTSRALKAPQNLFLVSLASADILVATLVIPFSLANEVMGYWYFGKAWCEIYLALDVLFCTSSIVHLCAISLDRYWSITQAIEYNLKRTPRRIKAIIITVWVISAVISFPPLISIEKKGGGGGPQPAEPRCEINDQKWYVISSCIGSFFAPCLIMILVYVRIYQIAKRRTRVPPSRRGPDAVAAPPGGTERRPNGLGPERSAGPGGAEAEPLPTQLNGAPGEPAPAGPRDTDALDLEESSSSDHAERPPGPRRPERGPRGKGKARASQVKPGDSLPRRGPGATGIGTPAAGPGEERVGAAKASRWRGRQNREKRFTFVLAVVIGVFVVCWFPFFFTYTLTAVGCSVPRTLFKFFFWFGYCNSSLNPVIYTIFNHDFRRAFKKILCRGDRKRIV
Chain of Histamine H2 receptor (P25021 whole entry): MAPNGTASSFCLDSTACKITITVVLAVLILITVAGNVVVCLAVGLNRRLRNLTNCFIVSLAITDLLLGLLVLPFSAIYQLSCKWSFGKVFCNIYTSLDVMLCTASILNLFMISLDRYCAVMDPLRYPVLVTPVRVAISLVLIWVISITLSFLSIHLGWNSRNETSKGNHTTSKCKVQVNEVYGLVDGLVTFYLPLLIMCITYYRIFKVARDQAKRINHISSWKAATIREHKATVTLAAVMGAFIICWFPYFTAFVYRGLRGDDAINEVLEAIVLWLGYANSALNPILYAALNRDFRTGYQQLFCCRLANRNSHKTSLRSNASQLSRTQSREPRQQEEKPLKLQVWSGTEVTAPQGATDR
Chain of Sodium-dependent serotonin transporter (P31645 whole entry): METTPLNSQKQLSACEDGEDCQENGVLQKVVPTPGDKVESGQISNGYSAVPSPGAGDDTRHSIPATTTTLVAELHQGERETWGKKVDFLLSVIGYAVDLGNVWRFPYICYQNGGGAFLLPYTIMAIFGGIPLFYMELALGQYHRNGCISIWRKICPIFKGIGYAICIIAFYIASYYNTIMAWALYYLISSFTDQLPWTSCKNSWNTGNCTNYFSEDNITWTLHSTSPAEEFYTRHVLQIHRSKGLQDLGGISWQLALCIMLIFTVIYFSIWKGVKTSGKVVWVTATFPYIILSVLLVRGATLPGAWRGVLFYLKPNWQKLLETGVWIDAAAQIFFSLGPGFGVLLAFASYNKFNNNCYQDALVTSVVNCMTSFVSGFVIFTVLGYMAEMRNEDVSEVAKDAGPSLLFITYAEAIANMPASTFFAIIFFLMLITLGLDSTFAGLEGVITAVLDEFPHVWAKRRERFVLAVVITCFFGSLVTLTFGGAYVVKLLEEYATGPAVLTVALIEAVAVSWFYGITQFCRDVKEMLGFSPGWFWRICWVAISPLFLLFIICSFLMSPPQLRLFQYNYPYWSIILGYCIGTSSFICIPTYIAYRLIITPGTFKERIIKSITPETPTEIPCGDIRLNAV
Chain of Alpha-1A adrenergic receptor (P35348 whole entry): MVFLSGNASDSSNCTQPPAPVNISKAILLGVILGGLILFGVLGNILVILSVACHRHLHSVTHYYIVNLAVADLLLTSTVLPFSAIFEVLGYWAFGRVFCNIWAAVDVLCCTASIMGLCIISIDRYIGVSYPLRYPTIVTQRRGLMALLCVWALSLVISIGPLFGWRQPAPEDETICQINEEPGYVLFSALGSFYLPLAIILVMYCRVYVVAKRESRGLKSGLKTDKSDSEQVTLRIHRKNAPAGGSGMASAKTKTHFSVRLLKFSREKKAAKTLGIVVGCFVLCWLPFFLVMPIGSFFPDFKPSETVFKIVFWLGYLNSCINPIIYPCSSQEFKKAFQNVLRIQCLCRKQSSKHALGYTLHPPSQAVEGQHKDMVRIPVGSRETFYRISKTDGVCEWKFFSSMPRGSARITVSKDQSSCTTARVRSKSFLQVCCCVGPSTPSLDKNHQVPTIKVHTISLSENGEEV
Chain of D(1A) dopamine receptor (P21728 whole entry): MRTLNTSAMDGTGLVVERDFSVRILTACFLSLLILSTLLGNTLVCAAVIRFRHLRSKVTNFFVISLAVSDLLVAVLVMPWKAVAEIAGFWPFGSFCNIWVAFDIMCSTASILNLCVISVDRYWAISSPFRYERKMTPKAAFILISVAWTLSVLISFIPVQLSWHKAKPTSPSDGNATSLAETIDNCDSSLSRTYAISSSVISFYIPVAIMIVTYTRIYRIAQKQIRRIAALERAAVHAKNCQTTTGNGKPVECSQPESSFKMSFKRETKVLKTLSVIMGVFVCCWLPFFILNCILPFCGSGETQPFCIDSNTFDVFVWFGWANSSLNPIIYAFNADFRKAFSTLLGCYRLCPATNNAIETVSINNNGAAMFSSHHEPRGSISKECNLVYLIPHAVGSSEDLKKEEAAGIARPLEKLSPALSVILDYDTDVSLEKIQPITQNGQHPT
Chain of Translocator protein (P16257 whole entry, looked up): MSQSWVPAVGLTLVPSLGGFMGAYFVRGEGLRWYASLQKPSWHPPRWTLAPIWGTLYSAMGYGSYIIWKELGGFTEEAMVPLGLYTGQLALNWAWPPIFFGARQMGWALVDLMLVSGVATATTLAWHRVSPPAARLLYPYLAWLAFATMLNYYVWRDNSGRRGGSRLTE

As usually defined, the IC50 is the concentration at which inhibition is half-maximal. Lower therefore signals inhibition by little substance. With `CC(=O)NCCCCCCn1cc(CCCCN2CCC(c3ccc(-c4cc(C(=O)O)cc5cc(-c6ccc(C(F)(F)F)cc6)ccc45)cc3)CC2)nn1`, in test [1], 83.5 nM corresponded to half-maximal inhibition (IC50).
As usually defined, the Ki is the dissociation constant of the complex between target and ligand, obtained from inhibition or displacement. In test [2], `O=C(O)c1cc(O)c2ccc(-c3ccc(C(F)(F)F)cc3)cc2c1` returned a Ki of 5800 nM.
Regarding `CC(C)(C)NC(=O)c1ccc(-c2cc(-c3nnn[nH]3)cc(-n3cc(-c4ccc(C(F)(F)F)cc4)nn3)c2)cc1`, in [1], the midpoint of inhibition, the IC50, lay at 20700 nM.
Still for that read-out and setting: then `CC(C)(C)OC(=O)N1CCN(C(=O)c2ccc(-c3cc(C(=O)O)cc(-n4cc(-c5ccc(C(F)(F)F)cc5)nn4)c3)s2)CC1`, with 53000 nM.
Consider `NC(=O)c1ccc(-c2cc(C(=O)O)cc(-n3cc(-c4ccc(C(F)(F)F)cc4)nn3)c2)nc1`, for which the IC50 in test [1] amounted to 516 nM.
Molecule `NCCCNC(=O)c1csc(-c2cc(C(=O)O)cc(-n3cc(-c4ccc(C(F)(F)F)cc4)nn3)c2)c1` gave an IC50 in test [1] of 735 nM.
The same measure, in the same setting: then `NCCCCNS(=O)(=O)c1ccc(-c2cc(C(=O)O)cc(-n3cc(-c4ccc(C(F)(F)F)cc4)nn3)c2)s1`, with 2180 nM; and `CC(C)(C)NC(=O)c1ccc(-c2cc(C(=O)O)cc(-n3cc(-c4ccc(C(F)(F)F)cc4)nn3)c2)cc1`, with 7530 nM.
On the same count and under the same terms, then `FC(F)(F)c1ccc(-c2cn(-c3cc(Br)cc(-c4nnn[nH]4)c3)nn2)cc1`, with 33100 nM.
In [1], `NS(=O)(=O)c1ccc(-c2cc(C(=O)O)cc(-n3cc(-c4ccc(C(F)(F)F)cc4)nn3)c2)cc1` registered a concentration for half-maximal inhibition (IC50) of 608 nM. The same molecule came in with an inhibition constant (Ki) in [3] of 3260 nM.
In test [1], `NCCCNS(=O)(=O)c1ccc(-c2cc(C(=O)O)cc(-n3cc(-c4ccc(C(F)(F)F)cc4)nn3)c2)s1` came in with a half-maximal inhibitory concentration (IC50) of 756 nM.
The same measure, in the same setting: then `O=C(O)c1cc(-c2ccc(S(=O)(=O)N3CCNCC3)cc2)cc(-n2cc(-c3ccc(C(F)(F)F)cc3)nn2)c1`, with 1640 nM; and `NCCCNC(=O)c1ccc(-c2cc(-c3nnn[nH]3)cc(-n3cc(-c4ccc(C(F)(F)F)cc4)nn3)c2)s1`, with 1190 nM; and `O=C(O)c1cc(-c2ccc(S(=O)(=O)N3CCNCC3)s2)cc(-n2cc(-c3ccc(C(F)(F)F)cc3)nn2)c1`, with 1510 nM.
Still for that read-out and setting: the value for `CC(C)(C)OC(=O)N1CCN(Cc2ccc(-c3cc(C(=O)O)cc(-n4cc(-c5ccc(C(F)(F)F)cc5)nn4)c3)s2)CC1` was 67200 nM; that for `O=C(O)c1cc(-c2ccc(C(=O)N3CCNCC3)s2)cc(-n2cc(-c3ccc(C(F)(F)F)cc3)nn2)c1` was 12600 nM.
Same read-out and setting: then `O=C(O)c1cc(-c2ccc(CN3CCNCC3)s2)cc(-n2cc(-c3ccc(C(F)(F)F)cc3)nn2)c1`, with 1960 nM; and `NC(=O)c1ccc(-c2cc(-c3nnn[nH]3)cc(-n3cc(-c4ccc(C(F)(F)F)cc4)nn3)c2)cc1`, with 2430 nM; and `C#CCCCCN1CCC(c2ccc(-c3cc(C(=O)O)cc4cc(-c5ccc(C(F)(F)F)cc5)ccc34)cc2)CC1`, with 763 nM.
As for `CC(C)(C)OC(=O)N1CCN(S(=O)(=O)c2ccc(-c3cc(C(=O)O)cc(-n4cc(-c5ccc(C(F)(F)F)cc5)nn4)c3)cc2)CC1`, the IC50 in [1] is over 50000 nM.
On the same count and under the same terms, the value for `CNC(=O)c1ccc(-c2cc(C(=O)O)cc(-n3cc(-c4ccc(C(F)(F)F)cc4)nn3)c2)cc1` was 563 nM; that for `NS(=O)(=O)c1ccc(-c2cc(C(=O)O)cc(-n3cc(-c4ccc(C(F)(F)F)cc4)nn3)c2)s1` was 6440 nM; that for `CC(C)(C)OC(=O)NCCNS(=O)(=O)c1ccc(-c2cc(C(=O)O)cc(-n3cc(-c4ccc(C(F)(F)F)cc4)nn3)c2)s1` was 5920 nM.
Same read-out and setting: then `CC(C)(C)OC(=O)NCCCCNS(=O)(=O)c1ccc(-c2cc(C(=O)O)cc(-n3cc(-c4ccc(C(F)(F)F)cc4)nn3)c2)s1`, with 13600 nM.
For `CC(C)(C)OC(=O)NCCCCCCn1cc(CCCCN2CCC(c3ccc(-c4cc(C(=O)O)cc5cc(-c6ccc(C(F)(F)F)cc6)ccc45)cc3)CC2)nn1`, the inhibitory constant (Ki) in [4] turned out to be 2360 nM; in test [5], 5280 nM; in [6], 7900 nM; in test [7], 5600 nM; in test [8], 4060 nM; in [9], 2080 nM. This molecule displayed a Ki in [10] of 829 nM. Also, the half-inhibitory concentration (IC50) in test [1] came to 133 nM.
In [1], `O=C(O)c1cc(O)cc(-n2cc(-c3ccc(C(F)(F)F)cc3)nn2)c1` gave an IC50 of 16400 nM.
With `CCNC(=O)c1ccc(-c2cc(C(=O)O)cc(-n3cc(-c4ccc(C(F)(F)F)cc4)nn3)c2)cc1`, in test [1], the IC50 is 899 nM.
Still for that read-out and setting: then `CCCNC(=O)c1ccc(-c2cc(C(=O)O)cc(-n3cc(-c4ccc(C(F)(F)F)cc4)nn3)c2)cc1`, with 1490 nM; and `O=C(O)c1cc(Br)cc(-n2cc(-c3ccc(C(F)(F)F)cc3)nn2)c1`, with 26800 nM.
Molecule `CC(C)(C)OC(=O)NCCCNC(=O)c1ccc(-c2cc(C(=O)O)cc(-n3cc(-c4ccc(C(F)(F)F)cc4)nn3)c2)s1` showed an IC50 in [1] of 2280 nM.
Same read-out and setting: the value for `CC(C)(C)OC(=O)NCCCNS(=O)(=O)c1ccc(-c2cc(C(=O)O)cc(-n3cc(-c4ccc(C(F)(F)F)cc4)nn3)c2)s1` was 9330 nM; that for `FC(F)(F)c1ccc(-c2cn(-c3cc(-c4ccc(C5CCNCC5)cc4)cc(-c4nnn[nH]4)c3)nn2)cc1` was 958 nM; that for `NCCCNC(=O)c1ccc(-c2cc(C(=O)O)cc(-n3cc(-c4ccc(C(F)(F)F)cc4)nn3)c2)o1` was 10900 nM.
As to `CC(C)(C)OC(=O)N1CCN(S(=O)(=O)c2ccc(-c3cc(C(=O)O)cc(-n4cc(-c5ccc(C(F)(F)F)cc5)nn4)c3)s2)CC1`, in test [1], the IC50 is 54700 nM.
In test [1], `NC(=O)c1ccc(-c2cc(C(=O)O)cc(-n3cc(-c4ccc(C(F)(F)F)cc4)nn3)c2)o1` displayed an IC50 of 3110 nM.
With `O=C(O)c1cc(-c2ccc(S(=O)(=O)NCCCCO)s2)cc(-n2cc(-c3ccc(C(F)(F)F)cc3)nn2)c1`, in test [1], half-maximal inhibition (IC50) was put at 8420 nM.
Take `NCCCCCCn1cc(CCCCN2CCC(c3ccc(-c4cc(C(=O)O)cc5cc(-c6ccc(C(F)(F)F)cc6)ccc45)cc3)CC2)nn1`: the Ki in test [11] was 8400 nM; in [5], 28 nM; in [12], 5650 nM; in test [13] it was 1110 nM; in [14], 1270 nM; in test [15], 1770 nM. The Ki in test [16] was found to be 1070 nM; in test [17], 1200 nM; in [18], 1600 nM; in test [19], 7600 nM; in test [2], 1870 nM; in test [20], 8210 nM. The figures for the Ki in test [21], in test [22] and in [10] were 1070 nM, 984 nM and 365 nM, respectively. Also, half-maximal inhibition in [1] (IC50) required 25.4 nM.
For `NCCCNC(=O)c1cc(-c2cc(C(=O)O)cc(-n3cc(-c4ccc(C(F)(F)F)cc4)nn3)c2)cs1`, inhibition in [1] was half-maximal at 1750 nM (IC50).
Same read-out and setting: the value for `NCCNS(=O)(=O)c1ccc(-c2cc(C(=O)O)cc(-n3cc(-c4ccc(C(F)(F)F)cc4)nn3)c2)s1` was 2260 nM; that for `NC(=O)c1ccc(-c2cc(C(=O)O)cc(-n3cc(-c4ccc(C(F)(F)F)cc4)nn3)c2)cn1` was 1410 nM.
`NC(=O)c1cnc(-c2cc(C(=O)O)cc(-n3cc(-c4ccc(C(F)(F)F)cc4)nn3)c2)cn1`: the IC50 in test [1] came to 566 nM.

These data come from ChEMBL document CHEMBL4184336, “Structure-Guided Modification of Heterocyclic Antagonists of the P2Y14 Receptor” (J Med Chem, 2018).
